Earlier results in EP0553294B1, “THE MANUFACTURE OF COMPOSITIONS FOR THE TREATMENT OF CELL PRO[…]” (AMGEN INC., priority 1990, dated 1992).

System: Kaposi's Sarcoma
Details: administered alone; general statement, no test described

Compound: Cc1cn([C@H]2C[C@H](N=[N+]=[N-])[C@@H](CO)O2)c(=O)[nH]c1=O [AZT, zidovudine]
- effectiveness on Kaposi's Sarcoma: not effective
